pKd: −log10 of the molar value. *1 amine or outer side, *2 acyl side, *3 side chain or, on linkers, in order; H or OH if unused. Where a SMILES comes first, the peptide text is derived from it. Bridges are numbered along the chain shown (N, C = ends). [ ]: non-standard residue; d: D form. The star is where a group is joined. hPhe(3,5-F2-4-CF3) = N[C@@H](CCc1cc(F)c(C(F)(F)F)c(F)c1)C(=O)O; NPrPhe(4-CF3) = CCCN[C@@H](Cc1ccc(C(F)(F)F)cc1)C(=O)O; X29 = CN([C@@H](CCCC=[*:3])C(=O)[*:2])[*:1]; dαMeAlg = C[C@](CC=[*:3])(N[*:1])C(=O)[*:2]; NMeGly(cPent) = CN[C@H](C(=O)O)C1CCCC1; Hyp = O=C(O)[C@@H]1C[C@@H](O)CN1; NMeD = CN[C@@H](CC(=O)O)C(=O)O; Morpholide = C1CN(*)CCO1; Sar = CNCC(=O)O
What was measured:
[1] = molecular target: GDP-bound KRAS wild-type protein (Homo sapiens, UniProt P01116); experiment: Binding to KRAS by surface plasmon resonance (SPR), Single Cycle Kinetics; conditions: SPR, Single Cycle Kinetics, GDP-bound KRAS wild-type protein; read-out: KRAS KD
Sequence of GDP-bound KRAS wild-type protein (P01116 whole entry): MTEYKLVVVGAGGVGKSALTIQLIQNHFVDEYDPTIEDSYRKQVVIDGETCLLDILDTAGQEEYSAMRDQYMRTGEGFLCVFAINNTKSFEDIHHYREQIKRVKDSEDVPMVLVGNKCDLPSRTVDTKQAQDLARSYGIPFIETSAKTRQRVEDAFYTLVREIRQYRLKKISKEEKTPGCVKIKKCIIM

[2] = molecular target: GDP-bound NRAS wild-type protein (Homo sapiens, UniProt P01111); experiment: Binding to NRAS by surface plasmon resonance (SPR), Single Cycle Kinetics; conditions: SPR, GDP-bound NRAS wild-type protein vs GDP-bound KRAS wild-type protein
Sequence of GDP-bound NRAS wild-type protein (P01111 whole entry): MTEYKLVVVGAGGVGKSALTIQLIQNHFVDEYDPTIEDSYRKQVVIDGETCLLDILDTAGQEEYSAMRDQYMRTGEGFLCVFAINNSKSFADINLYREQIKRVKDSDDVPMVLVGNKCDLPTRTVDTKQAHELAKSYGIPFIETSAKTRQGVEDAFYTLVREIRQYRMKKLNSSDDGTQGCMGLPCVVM

[3] = molecular target: GDP-bound HRAS wild-type protein (Homo sapiens, UniProt P01112); experiment: Binding to HRAS by surface plasmon resonance (SPR), Single Cycle Kinetics; conditions: SPR, GDP-bound HRAS wild-type protein vs GDP-bound KRAS wild-type protein
Sequence of GDP-bound HRAS wild-type protein (P01112 whole entry): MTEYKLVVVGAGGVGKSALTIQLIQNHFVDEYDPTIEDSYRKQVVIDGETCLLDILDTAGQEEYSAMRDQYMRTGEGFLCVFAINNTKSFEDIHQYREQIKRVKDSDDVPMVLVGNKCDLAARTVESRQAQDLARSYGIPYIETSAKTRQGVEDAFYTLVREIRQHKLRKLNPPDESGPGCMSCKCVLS

| pKd [1] | Structure (SMILES) | NRAS/KRAS (ratio of KD value for NRAS to KD value for KRAS) [2] | HRAS/KRAS (ratio of KD value for HRAS to KD value for KRAS) [3] |
| --- | --- | --- | --- |
| 10.74 | CCCN1C(=O)CN(C)C(=O)CN(C)C(=O)[C@H]([C@@H](C)CC)NC(=O)[C@@H]2CCCCCCOc3ccc(cc3)C[C@H]1C(=O)N(C)CC(=O)N[C@@H](CCc1cc(F)c(C(F)(F)F)c(F)c1)C(=O)N1C[C@H](OCC)C[C@H]1C(=O)NC1(CCCC1)C(=O)N(C)[C@@H](C1CCCC1)C(=O)N(C)[C@H](C(=O)N(C)C)CC(=O)N2C [PP0896] | C (A compound having a KD ratio of 0.1 or more and less than 3 is denoted as C) | C (A compound having a KD ratio of 0.1 or more and less than 3 is denoted as C) |
| 8.52 | CCCN1C(=O)CN(C)C(=O)CN(C)C(=O)[C@H]([C@@H](C)CC)NC(=O)[C@@H]2CCCC=CC[C@@](C)(NC(=O)[C@@H]3C[C@@H](OCC)CN3C(=O)[C@H](CCc3cc(F)c(C(F)(F)F)c(F)c3)NC(=O)CN(C)C(=O)[C@@H]1Cc1ccc(C(F)(F)F)cc1)C(=O)N(C)[C@@H](C1CCCC1)C(=O)N(C)[C@H](C(=O)N1CCOCC1)CC(=O)N2C [PP0901] ([X29]I[Sar][Sar][NPrPhe(4-CF3)][Sar][hPhe(3,5-F2-4-CF3)][Hyp](Et)[dαMeAlg][NMeGly(cPent)][NMeD]-Morpholide; staple 1-9; lactam N-11) | B (a compound having 3 or more and less than 10 is denoted as B) | B (a compound having 3 or more and less than 10 is denoted as B) |
| 9.32 | CCO[C@@H]1C[C@H]2C(=O)NC3(CCC3)C(=O)N(C)[C@@H](C3CCCC3)C(=O)N(C)[C@H](C(=O)N(C)C)CC(=O)N(C)[C@@H](CC)C(=O)N[C@@H]([C@@H](C)CC)C(=O)N(C)CC(=O)N(C)[C@H]3CCCCCN(C3=O)[C@@H](Cc3ccc(F)c(Cl)c3)C(=O)N(C)CC(=O)N[C@@H](CCc3cc(F)c(C(F)(F)F)c(F)c3)C(=O)N2C1 [PP0909] | B (a compound having 3 or more and less than 10 is denoted as B) | B (a compound having 3 or more and less than 10 is denoted as B) |
| 10.22 | CCO[C@@H]1C[C@H]2C(=O)NC3(CCC3)C(=O)N(C)[C@@H](C3CCCC3)C(=O)N(C)[C@H](C(=O)N(C)C)CC(=O)N(C)[C@@H](CC)C(=O)N[C@@H]([C@@H](C)CC)C(=O)N(C)CC(=O)N(C)[C@H]3CCCCCN(C3=O)[C@@H](Cc3ccc(F)cc3C)C(=O)N(C)CC(=O)N[C@@H](CCc3cc(F)c(C(F)(F)F)c(F)c3)C(=O)N2C1 [PP0911] | B (a compound having 3 or more and less than 10 is denoted as B) | B (a compound having 3 or more and less than 10 is denoted as B) |
| 9.37 | CCO[C@@H]1C[C@H]2C(=O)NC3(CCC3)C(=O)N(C)[C@@H](C3CCCC3)C(=O)N(C)[C@H](C(=O)N(C)C)CC(=O)N(C)[C@@H](CC)C(=O)N[C@@H]([C@@H](C)CC)C(=O)N(C)CC(=O)N(C)[C@H]3CCCCCN(C3=O)[C@@H](Cc3ccc(F)cc3OC)C(=O)N(C)CC(=O)N[C@@H](CCc3cc(F)c(C(F)(F)F)c(F)c3)C(=O)N2C1 [PP0914] | B (a compound having 3 or more and less than 10 is denoted as B) | B (a compound having 3 or more and less than 10 is denoted as B) |
| 9.85 | CCO[C@@H]1C[C@H]2C(=O)NC3(CCC3)C(=O)N(C)[C@@H](C3CCCC3)C(=O)N(C)[C@H](C(=O)N(C)C)CC(=O)N(C)[C@@H](CC)C(=O)N[C@@H]([C@@H](C)CC)C(=O)N(C)CC(=O)N(C)[C@H]3CCCCCN(C3=O)[C@@H](Cc3ccc(F)c(OC)c3)C(=O)N(C)CC(=O)N[C@@H](CCc3cc(F)c(C(F)(F)F)c(F)c3)C(=O)N2C1 [PP0915] | B (a compound having 3 or more and less than 10 is denoted as B) | B (a compound having 3 or more and less than 10 is denoted as B) |
| 9.40 | CCO[C@@H]1C[C@H]2C(=O)NC3(CCC3)C(=O)N(C)[C@@H](C3CCCC3)C(=O)N(C)[C@H](C(=O)N3CCOCC3)CC(=O)N(C)[C@@H](CC(C)C)C(=O)N[C@@H]([C@@H](C)CC)C(=O)N(C)CC(=O)N(C)[C@H]3CCCCCN(C3=O)[C@@H](Cc3ccc(F)cc3Cl)C(=O)N(C)CC(=O)N[C@@H](CCc3cc(F)c(C(F)(F)F)c(F)c3)C(=O)N2C1 [PP0918] | B (a compound having 3 or more and less than 10 is denoted as B) | B (a compound having 3 or more and less than 10 is denoted as B) |
| 9.09 | CCO[C@@H]1C[C@H]2C(=O)NC3(CCC3)C(=O)N(C)[C@@H](C3CCCC3)C(=O)N(C)[C@H](C(=O)N3CCOCC3)CC(=O)N(C)[C@@H](CC(C)C)C(=O)N[C@@H]([C@@H](C)CC)C(=O)N(C)CC(=O)N(C)[C@H]3CCCCCN(C3=O)[C@@H](Cc3ccc(F)c(Cl)c3)C(=O)N(C)CC(=O)N[C@@H](CCc3cc(F)c(C(F)(F)F)c(F)c3)C(=O)N2C1 [PP0919] | B (a compound having 3 or more and less than 10 is denoted as B) | B (a compound having 3 or more and less than 10 is denoted as B) |
| 9.30 | CCO[C@@H]1C[C@H]2C(=O)NC3(CCC3)C(=O)N(C)[C@@H](C3CCCC3)C(=O)N(C)[C@H](C(=O)N3CCOCC3)CC(=O)N(C)[C@@H](CC(C)C)C(=O)N[C@@H]([C@@H](C)CC)C(=O)N(C)CC(=O)N(C)[C@H]3CCCCCN(C3=O)[C@@H](Cc3ccc(F)c(C)c3)C(=O)N(C)CC(=O)N[C@@H](CCc3cc(F)c(C(F)(F)F)c(F)c3)C(=O)N2C1 [PP0922] | B (a compound having 3 or more and less than 10 is denoted as B) | B (a compound having 3 or more and less than 10 is denoted as B) |
| 9.09 | CCO[C@@H]1C[C@H]2C(=O)NC3(CCC3)C(=O)N(C)[C@@H](C3CCCC3)C(=O)N(C)[C@H](C(=O)N3CCOCC3)CC(=O)N(C)[C@@H](CC(C)C)C(=O)N[C@@H]([C@@H](C)CC)C(=O)N(C)CC(=O)N(C)[C@H]3CCCCCN(C3=O)[C@@H](Cc3ccc(F)cc3OC)C(=O)N(C)CC(=O)N[C@@H](CCc3cc(F)c(C(F)(F)F)c(F)c3)C(=O)N2C1 [PP0924] | B (a compound having 3 or more and less than 10 is denoted as B) | B (a compound having 3 or more and less than 10 is denoted as B) |
| 8.62 | CCO[C@@H]1C[C@H]2C(=O)NC3(CCC3)C(=O)N(C)[C@@H](C3CCCC3)C(=O)N(C)[C@H](C(=O)N3CCOCC3)CC(=O)N(C)[C@@H](Cc3ccccc3F)C(=O)N[C@@H]([C@@H](C)CC)C(=O)N(C)CC(=O)N(C)[C@H]3CCCCCN(C3=O)[C@@H](Cc3ccc(C(F)(F)F)cc3)C(=O)N(C)CC(=O)N[C@@H](CCc3cc(F)c(C(F)(F)F)c(F)c3)C(=O)N2C1 [PP0926] | B (a compound having 3 or more and less than 10 is denoted as B) | B (a compound having 3 or more and less than 10 is denoted as B) |
| 9.00 | CCO[C@@H]1C[C@H]2C(=O)NC3(CCC3)C(=O)N(C)[C@@H](C3CCCC3)C(=O)N(C)[C@H](C(=O)N3CCOCC3)CC(=O)N(C)[C@@H](Cc3ccc(F)c(F)c3)C(=O)N[C@@H]([C@@H](C)CC)C(=O)N(C)CC(=O)N(C)[C@H]3CCCCCN(C3=O)[C@@H](Cc3ccc(C(F)(F)F)cc3)C(=O)N(C)CC(=O)N[C@@H](CCc3cc(F)c(C(F)(F)F)c(F)c3)C(=O)N2C1 [PP0928] | A (a compound having 10 or more and less than 20 is denoted as A) | B (a compound having 3 or more and less than 10 is denoted as B) |
| 8.57 | CCO[C@@H]1C[C@H]2C(=O)NC3(CCC3)C(=O)N(C)[C@@H](C3CCCC3)C(=O)N(C)[C@H](C(=O)N3CCOCC3)CC(=O)N(C)[C@@H](Cc3ccccc3Cl)C(=O)N[C@@H]([C@@H](C)CC)C(=O)N(C)CC(=O)N(C)[C@H]3CCCCCN(C3=O)[C@@H](Cc3ccc(C(F)(F)F)cc3)C(=O)N(C)CC(=O)N[C@@H](CCc3cc(F)c(C(F)(F)F)c(F)c3)C(=O)N2C1 [PP0929] | A (a compound having 10 or more and less than 20 is denoted as A) | B (a compound having 3 or more and less than 10 is denoted as B) |
| 8.72 | CCO[C@@H]1C[C@H]2C(=O)NC3(CCC3)C(=O)N(C)[C@@H](C3CCCC3)C(=O)N(C)[C@H](C(=O)N3CCOCC3)CC(=O)N(C)[C@@H](Cc3ccccc3C)C(=O)N[C@@H]([C@@H](C)CC)C(=O)N(C)CC(=O)N(C)[C@H]3CCCCCN(C3=O)[C@@H](Cc3ccc(C(F)(F)F)cc3)C(=O)N(C)CC(=O)N[C@@H](CCc3cc(F)c(C(F)(F)F)c(F)c3)C(=O)N2C1 [PP0931] | A (a compound having 10 or more and less than 20 is denoted as A) | B (a compound having 3 or more and less than 10 is denoted as B) |
| 8.80 | CCO[C@@H]1C[C@H]2C(=O)NC3(CCC3)C(=O)N(C)[C@@H](C3CCCC3)C(=O)N(C)[C@H](C(=O)N3CCOCC3)CC(=O)N(C)[C@@H](Cc3ccc(C)cc3)C(=O)N[C@@H]([C@@H](C)CC)C(=O)N(C)CC(=O)N(C)[C@H]3CCCCCN(C3=O)[C@@H](Cc3ccc(C(F)(F)F)cc3)C(=O)N(C)CC(=O)N[C@@H](CCc3cc(F)c(C(F)(F)F)c(F)c3)C(=O)N2C1 [PP0933] | A (a compound having 10 or more and less than 20 is denoted as A) | B (a compound having 3 or more and less than 10 is denoted as B) |

Reference: patent US20240158446A1, “CYCLIC COMPOUND HAVING SELECTIVE INHIBITORY ACTION ON KRAS OVER HRAS AND NRAS” (CHUGAI SEIYAKU KABUSHIKI KAISHA, priority 2021, published 2024)
